Structures can show the parent of a compound that is named as a salt.

The record followed here is US9604969B2, “Pyrimidin-4-yl)oxy)-1h-indole-1-carboxamide derivatives and use thereof” (NOVARTIS AG, priority 2013, dated 2017).

A short description of data set [1]: Control incubations for chemical stability in incubation media. Format: physicochemical. The settings on record: 10 μmol/L, 37° C., incubation media in the absence of hepatocytes or liver microsomes. Here is the method:
(§1) To check the chemical stability of [^14C]N-(1-methyl-5-(trifluoromethyl)-1H-pyrazol-3-yl)-5-(6-((methylamino)methyl)pyrimidin-4-yloxy)-1H-indole-1-carboxamide under the incubation conditions, the compound was incubated at a concentration of 10 μmol/L in HepatoZYME without hepatocytes. A second series of control incubations was performed with hepatocytes of all species in the absence of the test compound to investigate the effect of the latter on the viability. These experiments were performed in a 12×6 mL MultiWell™ plate (Art. 393503, Beckton Dickinson).
Microsomal incubations for metabolite profiles were performed at 10 μmol/L of [^14C]N-(1-methyl-5-(trifluoromethyl)-1H-pyrazol-3-yl)-5-(6-((methylamino)methyl)pyrimidin-4-yloxy)-1H-indole-1-carboxamide (approx. 50% radiolabeled) with one time point investigated (60 min). Incubations were performed at 37° C. in 0.1 mol/L sodium phosphate buffer pH 7.4. The final concentrations in the incubation cocktail were: 4 mmol/L UDPGA (Sigma-Aldrich), 1 mmol/L β-NADPH (Sigma-Aldrich), 5 mmol/L MgCl2, and 60 μg alamethicin (Sigma-Aldrich) per mg microsomal protein. The system was left to incubate for 10 min before adding the test compound to allow the pore formation with the alamethicin. […]
(In general: Liver microsomes are vesicles of endoplasmic reticulum, rich in cytochrome P450 enzymes.)

For a further data set, the system named is rabbit hepatocytes. Nature of the data set: Hepatocyte viability during incubation (Guava ViaCount). Format: cell-based. The note with it: 10 μmol/L, percent viable cells relative to total cells, controls without compound 4-21%. The protocol: (§2) After thawing the cryopreserved hepatocytes, the viable cells were enriched by centrifugation in HepatoZYME cell culture medium (Gibco Invitrogen). For this purpose, the cells were added to 45 mL of a 37° C. warm HepatoZYME, and centrifuged at room temperature, at 50 g for 5 min. The supernatant containing dead cells was discarded and the cells in the pellet were re-suspended in HepatoZYME.
(§3) The viability of the re-suspended hepatocytes was determined by a Guava EasyCyte™ Mini system using the ViaCount® assay as described by the supplier (Guava Technologies, Hayward, Calif., USA). After cell counting, the cell concentration was adjusted to approx. 1·10^6 viable cells/mL by adding HepatoZYME. Subsequently, the incubations were started by adding [^14C]N-(1-methyl-5-(trifluoromethyl)-1H-pyrazol-3-yl)-5-(6-((methylamino)methyl)pyrimidin-4-yloxy)-1H-indole-1-carboxamide and non-labeled N-(1-methyl-5-(trifluoromethyl)-1H-pyrazol-3-yl)-5-(6-((methylamino)methyl)pyrimidin-4-yloxy)-1H-indole-1-carboxamide as a solution in DMSO. The final concentration of DMSO in the incubations was 0.1% (v/v).
as §1
(§4) The incubations were performed at 37° C. under a humidified atmosphere of 95% relative humidity and 5% CO2 in a Heraeus incubator/cytoperm (Kendro Laboratory Products AG, Zürich, Switzerland). During the incubations, the plates and flasks were shaken at 300 strokes per minute. The viability of the hepatocytes was determined after 6 h (end of incubation).

The next data set deals with monkey hepatocytes. Described as above. Format: cell-based. The note with it: 10 μmol/L, percent viable cells relative to total cells, controls without compound 4-21%. The protocol:
as §2, §3, §1, §4

The test system of a further data set is human hepatocytes. The data set is described as above. Type of data set: cell-based. The note with it: 10 μmol/L, percent viable cells relative to total cells, controls without compound 4-21%. The protocol: as §2, §3, §1, §4
The next data set concerns rat hepatocytes. The description is as above. Format: cell-based. The settings on record: 10 μmol/L, percent viable cells relative to total cells, controls without compound 4-21%. Here is the method: as §2, §3, §1, §4
The format of data set [2] is physicochemical. An excerpt:
Crystalline form B of the HCl salt of N-(1-methyl-5-(trifluoromethyl)-1H-pyrazol-3-yl)-5-((6-((methylamino)methyl)pyrimidin-4-yl)oxy)-1H-indole-1-carboxamide was obtained using the same procedure as in Example 5 above.

In the case of `CNCc1cc(Oc2ccc3c(ccn3C(=O)Nc3cc(C(F)(F)F)n(C)n3)c2)ncn1` [N-(1-methyl-5-(trifluoromethyl)-1H-pyrazol-3-yl)-5-((6-((methylamino)methyl)pyrimidin-4-yl)oxy)-1H-indole-1-carboxamide], in data set [1], the “Chemical stability under the incubation conditions” value is given as “confirmed the stability of the compound”. Besides, the “Viability at 6 h” value worked out at 8% in the data set on rabbit hepatocytes, 42% in the data set on monkey hepatocytes, 25% in the data set on human hepatocytes and 22% with rat hepatocytes.

`CNCc1cc(Oc2ccc3c(ccn3C(=O)Nc3cc(C(F)(F)F)n(C)n3)c2)ncn1` [Form B, N-(1-methyl-5-(trifluoromethyl)-1H-pyrazol-3-yl)-5-((6-((methylamino)methyl)pyrimidin-4-yl)oxy)-1H-indole-1-carboxamide (HCl Salt) Form B]: in data set [2], the “Stability of crystalline form” value is “transient form that converts back to Form A”.
